Laboratory results: ChEMBL document CHEMBL1150586, “Goniolactones A-F, six new styrylpyrone derivatives from the roots of Goniothalamus cheliensis” (J Nat Prod, 2002)

Assays:
Format in all cases: functional, cell-based
[1] = tested on: A2780; test: Cytotoxicity against human A2780 cells after 5 days by MTT assay; conditions: A2780, 120 h
[2] = tested on: HCT-8; test: Cytotoxicity against human HCT8 cells after 5 days by MTT assay; conditions: HCT-8, 120 h
[3] = tested on: KB; test: Cytotoxicity against human KB cells after 5 days by MTT assay; conditions: 120 h

**Q.** Which results are given for `O=C1C=CC[C@H]([C@H](O)[C@@H](c2ccccc2)c2c(O)cc3c(c2O)C(=O)C[C@@H](c2ccccc2)O3)O1` [GONIOLACTONE B]?
**A.** IC50 [1]: 7.4 µM; IC50 [2]: 4.43 µM; IC50 [3]: 7.23 µM
